# Assay results taken from US7674906B2, “Tetracyclic immunomodulatory compounds” (Active Biotech AB, priority 2002, dated 2010).
# Target: T1, CD80-CD 28 interaction (Homo sapiens, UniProt P33681)
# T1 sequence (P33681 35-242 limits assumed): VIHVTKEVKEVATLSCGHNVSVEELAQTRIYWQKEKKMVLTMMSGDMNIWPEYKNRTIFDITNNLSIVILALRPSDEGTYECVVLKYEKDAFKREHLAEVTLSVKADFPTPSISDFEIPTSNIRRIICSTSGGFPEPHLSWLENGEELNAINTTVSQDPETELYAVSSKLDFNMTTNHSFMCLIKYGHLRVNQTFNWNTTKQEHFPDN
# Assay: cell free Homogenous Time Resolved Fluorescence (HTRF) assay, inhibition of the CD80-CD28 interaction
# Assay type: binding
# Settings: CD28-mouse Fc fusion protein and CD80 mouse Fab fragment (C215) fusion protein, 4 hours at room temperature, concentration series 100 μM-1.7 nM
# Procedure: The examples described above were tested in a cell free Homogenous Time Resolved Fluorescence (HTRF) assay to determine their activity as inhibitors of the CD80-CD 28 interaction.
# In the assay, europium and allophycocyanin (APC) are associated with CD28 and CD80 indirectly (through anti-body linkers) to form a complex, which brings the europium and APC into close proximity to generate a signal. The complex comprises the following six proteins: fluorescent label 1, linker antibody 1, CD28 fusion protein, CD80 fusion protein, linker antibody 2, and fluorescent label 2. The table below describes these reagents in greater detail.
# On formation of the complex, europium and APC are brought into proximity and a signal is generated.
# Non-specific interaction was measured by substituting a mouse Fab fragment (C215) for the CD80 mouse Fab fragment fusion protein (1.9 μg/ml). The assay was carried out in black 384 well plates in a final volume of 30 μl. Assay buffer: 50 mM Tris-HCl, 150 mM NaCl pH7.8, containing 0.1% BSA (w/v) added just prior to use.
# Compounds were added to the above reagents in a concentration series ranging between 100 μM-1.7 nM. The reaction was incubated for 4 hours at room temperature. Dual measurements were made using a Wallac Victor 1420 Multilabel Counter. First measurement: excitation 340 nm, emission 665 nm, delay 50 μs, window time 200 μs. second measurement: excitation 340 nm, emission 615 nm, delay 50 μs, window time 200 μs. Counts were automatically corrected for fluorescence crossover, quenching and background.
row,SMILES,IC50
1,"O=C(O)c1ccc(-n2nc3c4ccccc4[nH]c(-c4cccc([N+](=O)[O-])c4)c-3c2=O)cc1 [Example 5, 4-[4-(3-Nitro-phenyl)-3-oxo-3,5-dihydro-pyrazolo[4,3-c]-quinolin-2-yl]-benzoic acid]",8.6 µM
2,"COc1ccc(-c2[nH]c3ccccc3c3nn(-c4ccc(C(=O)O)cc4)c(=O)c2-3)cc1 [Example 7, 4-[4-(4-Methoxyphenyl)-3-oxo-3,5-dihydropyrazolo[4,3-c]-quinolin-2-yl]benzoic acid]",3.4 µM
3,COc1ccc(-c2[nH]c3ccccc3c3nn(-c4cccc(C(=O)O)c4)c(=O)c2-3)cc1 [Example 9],4.6 µM
